Laboratory results reported in US20090311217A1, “3-SUBSTITUTED-1H-INDOLE COMPOUNDS, THEIR USE AS MTOR KINASE AND PI3 KINASE INHIBITORS, AND THEIR SYNTHESES” (priority 2008, published 2009).

Key:
PI3K-alpha = PI3K-alpha (Homo sapiens, UniProt P42336); assay: PI3K-alpha fluorescence polarization assay; type: biochemical; conditions: read-out: PI3Kα Avg. IC50
PI3K-gamma = PI3K-gamma (Homo sapiens, UniProt P48736); assay: PI3K-gamma fluorescence polarization assay; type: biochemical; conditions: PI3Kγ Avg. IC50
Chain of PI3K-gamma (P48736 whole entry, species assumed): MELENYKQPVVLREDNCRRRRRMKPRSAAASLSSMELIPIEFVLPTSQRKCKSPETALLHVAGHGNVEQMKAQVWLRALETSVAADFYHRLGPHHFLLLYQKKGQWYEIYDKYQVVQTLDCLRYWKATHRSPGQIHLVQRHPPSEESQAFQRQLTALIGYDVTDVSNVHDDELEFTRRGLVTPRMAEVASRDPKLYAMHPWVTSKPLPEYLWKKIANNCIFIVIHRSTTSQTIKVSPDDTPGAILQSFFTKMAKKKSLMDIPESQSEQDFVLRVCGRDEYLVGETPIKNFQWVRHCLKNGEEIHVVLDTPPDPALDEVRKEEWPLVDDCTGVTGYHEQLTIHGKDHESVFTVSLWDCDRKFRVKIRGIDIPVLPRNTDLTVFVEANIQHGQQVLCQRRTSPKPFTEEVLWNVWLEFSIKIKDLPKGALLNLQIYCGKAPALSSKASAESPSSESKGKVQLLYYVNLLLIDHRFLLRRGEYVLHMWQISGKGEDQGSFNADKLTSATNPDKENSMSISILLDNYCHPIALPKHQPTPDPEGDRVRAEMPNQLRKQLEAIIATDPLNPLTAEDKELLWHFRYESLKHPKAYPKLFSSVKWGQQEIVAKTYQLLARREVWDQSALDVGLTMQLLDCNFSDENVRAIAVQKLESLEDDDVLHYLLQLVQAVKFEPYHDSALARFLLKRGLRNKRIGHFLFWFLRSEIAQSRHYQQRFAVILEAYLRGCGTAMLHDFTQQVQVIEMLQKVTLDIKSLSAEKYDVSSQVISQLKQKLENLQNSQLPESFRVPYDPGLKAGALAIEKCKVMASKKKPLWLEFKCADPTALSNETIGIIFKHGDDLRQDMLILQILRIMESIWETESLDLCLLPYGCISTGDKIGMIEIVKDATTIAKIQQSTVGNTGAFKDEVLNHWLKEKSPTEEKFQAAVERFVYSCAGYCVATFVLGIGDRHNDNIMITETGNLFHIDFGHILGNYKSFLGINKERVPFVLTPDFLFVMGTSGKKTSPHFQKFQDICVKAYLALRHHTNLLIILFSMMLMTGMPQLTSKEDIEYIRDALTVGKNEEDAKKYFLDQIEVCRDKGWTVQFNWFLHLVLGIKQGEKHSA
Procedure: PI3K-Alpha, PI3K-Beta, PI3K-Gamma, and PI3K-delta Fluorescence Polarization Assay Protocols
PI3-Kinase reactions were performed in 5 mM HEPES, pH 7, 2.5 mM MgCl2, and 25 μM ATP, with diC8-PI(4,5)P2 (Echelon, Salt Lake City Utah) as substrate. Nunc 384-well black polypropylene fluorescent plates were used for PI3K assays. Reactions were quenched by the addition of EDTA to a final concentration of 10 mM. Final reaction volumes were 10 μl. For evaluation of PI3K inhibitors, 5 ng of enzyme (PI3K-alpha, beta, gamma, or delta) and 2.5 μM of substrate was used per […] reaction volume, and inhibitor concentrations ranged from 100 μM to 20 μM; the final level of DMSO in reactions never exceeded 2%. Reactions were allowed to proceed for one hour at 25° C. After 1 hour, GST-tagged GRP1 (general receptor for phosphoinositides) PH domain fusion protein was added to a final concentration of 100 nM, and BODIPY-TMRI(1,3,4,5)P4 (Echelon) was also added to a final concentration of 5 nM. Final sample volumes were 25 μl with a final DMSO concentration of 0.8%. Assay Plates were read on Perkin-Elmer Envision plate readers with appropriate filters for Tamra [BODIPY-TMRI(1,3,4,5)P4]. Data obtained were used to calculate enzymatic activity and enzyme inhibition by inhibitor compounds.

Chain of PI3K-alpha (P42336 whole entry, species assumed): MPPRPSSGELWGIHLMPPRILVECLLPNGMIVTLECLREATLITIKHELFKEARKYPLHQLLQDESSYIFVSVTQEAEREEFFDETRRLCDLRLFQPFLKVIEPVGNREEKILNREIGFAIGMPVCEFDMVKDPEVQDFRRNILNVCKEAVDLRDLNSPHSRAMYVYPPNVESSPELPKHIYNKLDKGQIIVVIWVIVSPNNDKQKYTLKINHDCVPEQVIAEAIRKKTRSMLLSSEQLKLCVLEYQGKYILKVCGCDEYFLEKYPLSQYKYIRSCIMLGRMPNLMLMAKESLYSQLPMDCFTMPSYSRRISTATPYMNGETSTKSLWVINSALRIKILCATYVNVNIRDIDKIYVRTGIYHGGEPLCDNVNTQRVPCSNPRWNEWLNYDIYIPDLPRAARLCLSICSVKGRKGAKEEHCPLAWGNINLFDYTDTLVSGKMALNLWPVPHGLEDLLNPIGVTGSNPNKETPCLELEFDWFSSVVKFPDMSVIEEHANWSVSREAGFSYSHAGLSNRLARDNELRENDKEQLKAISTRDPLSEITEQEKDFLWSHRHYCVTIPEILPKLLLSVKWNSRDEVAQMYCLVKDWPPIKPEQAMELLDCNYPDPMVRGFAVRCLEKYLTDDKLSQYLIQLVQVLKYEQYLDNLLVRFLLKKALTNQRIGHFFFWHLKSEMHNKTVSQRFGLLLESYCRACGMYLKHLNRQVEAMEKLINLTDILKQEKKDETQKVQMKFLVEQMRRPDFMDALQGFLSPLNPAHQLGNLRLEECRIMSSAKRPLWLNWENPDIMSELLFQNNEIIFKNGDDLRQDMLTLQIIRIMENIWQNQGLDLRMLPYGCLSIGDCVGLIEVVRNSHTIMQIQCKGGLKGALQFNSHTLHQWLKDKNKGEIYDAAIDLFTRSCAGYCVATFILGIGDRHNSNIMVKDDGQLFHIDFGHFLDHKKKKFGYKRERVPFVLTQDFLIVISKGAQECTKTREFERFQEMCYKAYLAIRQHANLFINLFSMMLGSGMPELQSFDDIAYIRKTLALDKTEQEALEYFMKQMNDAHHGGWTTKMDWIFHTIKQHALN
Chain of PI3K-alpha (P27986 whole entry partner, species assumed): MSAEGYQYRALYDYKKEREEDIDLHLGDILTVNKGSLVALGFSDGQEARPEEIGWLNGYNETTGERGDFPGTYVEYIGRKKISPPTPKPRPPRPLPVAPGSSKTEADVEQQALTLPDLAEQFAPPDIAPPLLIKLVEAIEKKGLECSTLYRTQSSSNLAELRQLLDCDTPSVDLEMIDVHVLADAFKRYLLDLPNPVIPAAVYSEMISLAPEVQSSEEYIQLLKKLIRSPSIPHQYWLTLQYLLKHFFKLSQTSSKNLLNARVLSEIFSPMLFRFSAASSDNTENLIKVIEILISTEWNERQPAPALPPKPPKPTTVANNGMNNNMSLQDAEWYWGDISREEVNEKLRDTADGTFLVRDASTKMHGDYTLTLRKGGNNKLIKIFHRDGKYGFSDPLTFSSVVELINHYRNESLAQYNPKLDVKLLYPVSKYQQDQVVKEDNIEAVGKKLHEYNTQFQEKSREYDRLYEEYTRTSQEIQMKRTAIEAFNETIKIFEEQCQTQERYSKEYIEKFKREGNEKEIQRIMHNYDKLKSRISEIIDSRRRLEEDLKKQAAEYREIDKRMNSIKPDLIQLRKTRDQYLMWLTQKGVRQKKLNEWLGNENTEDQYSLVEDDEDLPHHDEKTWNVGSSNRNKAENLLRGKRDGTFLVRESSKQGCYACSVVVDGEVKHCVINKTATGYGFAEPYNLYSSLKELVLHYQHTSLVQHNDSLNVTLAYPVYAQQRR

IC50 (PI3K-alpha) [nM]	IC50 (PI3K-gamma) [nM]	Compound
1040	4770	Cn1cc(/C=C2\Oc3cc(O)cc(O)c3C2=O)c2c(N3CCOCC3)cccc21 [Compound 496, (2Z)-4,6-dihydroxy-2-[(1-methyl-4-morpholin-4-yl-1H-indol-3-yl)methylene]-1-benzofuran-3(2H)-one]
1.25	206	CNC(=O)Nc1ccc2c(c1)C(=O)/C(=C/c1c(-c3ccccc3)n(CCN3CCN(C)CC3)c3ccc(OC)cc13)O2 [Compound 575, 1-[(2Z)-2-({5-methoxy-1-[2-(4-methylpiperazin-1-yl)ethyl]-2-phenyl-1H-indol-3-yl}methylene)-3-oxo-2,3-dihydro-1-benzofuran-5-yl]-3-methylurea]
> 10000	> 10000	Cn1cc(/C=C2\Oc3ccc(O)cc3C2=O)c2c(-c3ccccc3)cccc21 [Compound 530, (2Z)-5-hydroxy-2-[(1-methyl-4-phenyl-1H-indol-3-yl)methylene]-1-benzofuran-3(2H)-one]
3.5	355	CNC(=O)Nc1ccc2c(c1)C(=O)/C(=C/c1c(-c3nc(C(C)C)no3)n(CCN3CCN(C)CC3)c3ccc(OC)cc13)O2 [Compound 614, 1-[(2Z)-2-({5-methoxy-2-[3-(1-methylethyl)-1,2,4-oxadiazol-5-yl]-1-[2-(4-methylpiperazin-1-yl)ethyl]-1H-indol-3-yl}methylidene)-3-oxo-2,3-dihydro-1-benzofuran-5-yl]-3-methylurea]
133	1510	CCc1cc(O)cc2c1C(=O)C(=Cc1c[nH]c3ccc(OC)cc13)O2 [Compound 506, 4-ethyl-6-hydroxy-2-[(5-methoxy-1H-indol-3-yl)methylene]-1-benzofuran-3(2H)-one]
2	26.5	CNC(=O)Nc1ccc2c(c1)C(=O)/C(=C/c1c(-c3c(C)noc3C)[nH]c3ccc(OC)cc13)O2 [Compound 581, 1-[(2Z)-2-{[2-(3,5-dimethylisoxazol-4-yl)-5-methoxy-1H-indol-3-yl]methylene}-3-oxo-2,3-dihydro-1-benzofuran-5-yl]-3-methylurea]

Second part, the molecule before the results:

Compound	IC50 (PI3K-alpha) [nM]	IC50 (PI3K-gamma) [nM]
COc1ccc2[nH]cc(C=C3Oc4cc(OS(=O)(=O)C(F)(F)F)ccc4C3=O)c2c1 [Compound 494, 2-[(5-methoxy-1H-indol-3-yl)methylene]-3-oxo-2,3-dihydro-1-benzofuran-6-yl trifluoromethanesulfonate]	> 10000	9350
CNC(=O)Nc1ccc2c(c1)C(=O)/C(=C/c1c(-c3nc(C4CC4)no3)[nH]c3ccc(OC)cc13)O2 [Compound 592, 1-[(2Z)-2-{[2-(3-cyclopropyl-1,2,4-oxadiazol-5-yl)-5-methoxy-1H-indol-3-yl]methylene}-3-oxo-2,3-dihydro-1-benzofuran-5-yl]-3-methylurea]	5.5	8900
COc1ccc2c(c1)c(/C=C1\Oc3ccc(O)cc3C1=O)cn2CCCN(C)C [Compound 515, (2Z)-2-({1-[3-(dimethylamino)propyl]-5-methoxy-1H-indol-3-yl}methylene)-5-hydroxy-1-benzofuran-3(2H)-one]	1170	2510
Cn1cc(C=C2Oc3cc(O)cc(O)c3C2=O)c2c(-c3ccccc3)cccc21 (single isomer, unassigned) [Compound 544, (2E)-4,6-dihydroxy-2-[(1-methyl-4-phenyl-1H-indol-3-yl)methylene]-1-benzofuran-3(2H)-one-(2Z)-4,6-dihydroxy-2-[(1-methyl-4-phenyl-1H-indol-3-yl)methylene]-1-benzofuran-3(2H)-one (1:1)]	266	2150
COc1cc(/C=C/CN2CCN(C)CC2)c2[nH]cc(/C=C3\Oc4cc(O)ccc4C3=O)c2c1 [Compound 545, (2Z)-6-hydroxy-2-({5-methoxy-7-[(1E)-3-(4-methylpiperazin-1-yl)prop-1-en-1-yl]-1H-indol-3-yl}methylene)-1-benzofuran-3(2H)-one]	40.5	1240
